A short description of series [1]: Presaturation equilibrium dialysis, fraction unbound in rat plasma. The format is in vitro ADME. Further details: fraction unbound at 18 h: dose or concentration left out as unconfirmed. Conditions: Wistar-Han rat plasma, 37 °C, value (CV), read-out: Fraction Unbound (fu) and Coefficient of Variance (CV), Rat Plasma; for fraction unbound at 18 h, 5 µM: 5 μM PFAS. Here is the method: (§1) Each PFAS:matrix combination was assessed in quadruplicate.
(§2) The injection volume for each sample was 5 µL.
Background: In equilibrium dialysis free small molecules cross a membrane that holds back macromolecules.

In series [2] the target is mouse serum albumin (MSA) (Mus musculus, UniProt P07724). As to the kind of experiment: Presaturation equilibrium dialysis, fraction unbound in mouse serum albumin solution. Conditions: for fraction unbound at 18 h, 5 µM: mouse. As for the experimental part: (§3) The equilibrium dialysis device (EQD) HTD96 (Gales Ferry, CT, USA) was assembled according to manufacturer instructions. DPBS buffer solutions were prepared by adding PFAS with a concentration of either approximately five-fold of the estimated fu values based on initial available data or assumed to be 0.001 if no data was available. The dialysis apparatus and membranes assembled were pre-saturated (250 µL) three times in total with PFAS spiked DPBS buffer solution; twice for 1 h followed by a final 18-h pre-saturation. This same solution was used on the receiver side of the EQD. […] This 4% albumin was used in the albumin binding study to recapitulate plasma concentration, as human albumin concentration in plasma is 3.5–4.5 g/dL (530–680 µM). The matrix was diluted five-fold using DPBS for PFAS that had preliminary fu values lower than 0.01. Dimethylsulfoxide (DMSO) stock solutions of test PFAS were prepared at 500 μM and added to species-specific plasma or 4% albumin to a final concentration of 5 μM with 1% DMSO. Next, 150 μL of PFAS spiked DPBS was added to the receiver side of the membrane and 150 μL of compound spiked matrix was added to the donor side. […] Each PFAS:matrix combination was assessed in quadruplicate. For sample collection, 15 μL of buffer and 45 μL of matrix were sampled from the dialysis device into a 96-deep well plate and matrix-matched with either blank buffer or matrix. The samples were then quenched with 200 μL of cold acetonitrile containing internal standard (tolbutamide 30 nM and carbamazepine 12 nM) to precipitate proteins. Next, the plates were sealed and placed on a vortex mixer for 1 min, and then centrifuged (Beckman Coulter, Fullerton, CA, USA) at 3000 rpm for 5 min at room temperature. Lastly, the supernatant was transferred to a new 96-well plate, fully dried down under nitrogen gas, reconstituted with 200 µL of 50/50 (v/v) HPLC grade water/acetonitrile, and vortexed for 1 min prior to LC-MS/MS analysis.
Sequence of mouse serum albumin (MSA) (P07724 25-608): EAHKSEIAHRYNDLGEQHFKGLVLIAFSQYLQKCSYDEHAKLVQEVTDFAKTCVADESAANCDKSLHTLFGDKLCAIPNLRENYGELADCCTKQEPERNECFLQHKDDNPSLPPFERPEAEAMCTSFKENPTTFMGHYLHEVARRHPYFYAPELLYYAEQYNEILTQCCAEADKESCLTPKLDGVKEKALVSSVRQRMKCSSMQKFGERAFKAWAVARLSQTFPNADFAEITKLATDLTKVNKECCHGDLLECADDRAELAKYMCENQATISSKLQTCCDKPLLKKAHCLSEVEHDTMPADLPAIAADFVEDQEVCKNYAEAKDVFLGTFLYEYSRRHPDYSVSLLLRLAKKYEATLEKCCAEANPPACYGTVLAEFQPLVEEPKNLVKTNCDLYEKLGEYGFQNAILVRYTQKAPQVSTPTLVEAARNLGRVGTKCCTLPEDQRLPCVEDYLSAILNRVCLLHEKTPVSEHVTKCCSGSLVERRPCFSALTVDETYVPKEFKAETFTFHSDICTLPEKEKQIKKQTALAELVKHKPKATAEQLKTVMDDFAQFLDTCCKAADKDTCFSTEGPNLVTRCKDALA
(§4) LC-MS/MS analyses were performed on a SCIEX Triple Quad 5500 mass spectrometer (SCIEX, Concord, ON, Canada) equipped with Turbo Ion Spray interface. […] All instruments were controlled and synchronized by SCIEX Analyst software (version 1.6.3). Mobile phases compositions were 0.1% formic acid in water (mobile phase A) and 0.1% formic acid in acetonitrile (mobile phase B). […] The column was equilibrated at 5% B for 0.5 min before injecting samples. The total run time for each injection was 6 min. The chromatographic separation was conducted on a Phenomenex Kinetex C18 100Å 30 × 2.1 mm column (Torrance, CA, USA) with a flow rate of 0.5 mL/min. The injection volume for each sample was 5 µL. Multiple-reaction-monitoring (MRM) mode using specific precursor/product ion transitions was used for quantification. Data processing was performed using SCIEX Analyst software (version 1.6.3).
(§5) The calculations for fu are shown in Equations (1) and (2), where D is the dilution factor and fu,d is the diluted fu shown below. All calculations are based on area ratios (analyte peak area/IS peak area), and MS responses used for calculations were all in linear ranges. […] (1) Diluted fud=Receiver Area Ratio/Donor Area Ratio (2) Undiluted fu=1/D/1/fu,d−1+1/D
(§6) Albumin concentrations for rodents have been reported in the literature as rat: 3.0 g/dL; CD-1 mice: 2.7 g/dL; C57BL/6 mice: 2.9 g/dL [53].

The target in series [3] is rat serum albumin (RSA) (Rattus norvegicus, UniProt P02770). As to the kind of experiment: Presaturation equilibrium dialysis, fraction unbound in rat serum albumin solution. The note with it: for fraction unbound at 18 h, 5 µM: rat. As for the experimental part: as §3, §4, §5, §6
Sequence of rat serum albumin (RSA) (P02770 25-608): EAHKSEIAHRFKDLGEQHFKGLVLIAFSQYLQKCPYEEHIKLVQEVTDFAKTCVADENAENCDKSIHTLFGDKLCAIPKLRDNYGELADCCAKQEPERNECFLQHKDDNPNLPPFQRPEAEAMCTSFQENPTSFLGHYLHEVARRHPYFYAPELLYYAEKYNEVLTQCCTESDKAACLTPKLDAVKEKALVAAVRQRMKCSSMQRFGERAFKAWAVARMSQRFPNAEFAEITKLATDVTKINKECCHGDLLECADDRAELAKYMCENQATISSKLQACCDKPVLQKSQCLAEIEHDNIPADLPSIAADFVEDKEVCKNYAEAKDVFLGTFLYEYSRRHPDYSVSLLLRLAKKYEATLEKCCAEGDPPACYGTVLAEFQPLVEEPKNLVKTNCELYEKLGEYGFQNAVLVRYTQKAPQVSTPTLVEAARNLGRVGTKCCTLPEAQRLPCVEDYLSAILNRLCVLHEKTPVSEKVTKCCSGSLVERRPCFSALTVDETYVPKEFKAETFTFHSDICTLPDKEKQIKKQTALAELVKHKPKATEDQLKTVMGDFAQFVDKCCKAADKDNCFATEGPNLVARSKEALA
Series [4] has as its target T1, human serum albumin (HSA) (Homo sapiens, UniProt P02768).
T1 construct: purchased Sigma-Aldrich
As to the kind of experiment: Presaturation equilibrium dialysis, fraction unbound in human serum albumin solution. In kind it is in vitro ADME. Conditions: 4% human serum albumin in PBS, 5 μM PFAS, value (CV); for fraction unbound at 18 h, 5 µM: 4% human serum albumin (HSA) solution, read-out: Fraction Unbound (fu) and Coefficient of Variance (CV), HSA. As for the experimental part:
as §1, §2

Series [5] is described as follows: Presaturation equilibrium dialysis, fraction unbound in CD-1 mouse plasma. Further details: fraction unbound at 18 h: dose or concentration left out as unconfirmed. The format is in vitro ADME. The note with it: 37 °C, value (CV), read-out: Fraction Unbound (fu) and Coefficient of Variance (CV), CD-1 Plasma; for fraction unbound at 18 h, 5 µM: 5 μM PFAS. As for the experimental part:
as §1, §2

A short description of series [6]: Presaturation equilibrium dialysis, fraction unbound in human plasma. In kind it is in vitro ADME. Conditions: human, 37 °C, value (CV), read-out: Fraction Unbound (fu) and Coefficient of Variance (CV), Human Plasma; for fraction unbound at 18 h, 5 µM: 5 μM PFAS. On the set-up: fraction unbound at 18 h: dose or concentration left out as unconfirmed. As for the experimental part: as §1, §2

The nature of series [7]: Presaturation equilibrium dialysis, fraction unbound in C57BL/6 mouse plasma. Conditions: 37 °C, value (CV), read-out: Fraction Unbound (fu) and Coefficient of Variance (CV), C57BL/6 Plasma; for fraction unbound at 18 h, 5 µM: 5 μM PFAS. On the set-up: fraction unbound at 18 h: dose or concentration left out as unconfirmed. In kind it is in vitro ADME. Here is the method:
as §1, §2

The subject of series [8] is rat (Wistar-Han) plasma. As to the kind of experiment: Presaturation equilibrium dialysis, fraction unbound in rat plasma. The format is in vitro ADME. On the set-up: fraction unbound at 18 h: dose or concentration left out as unconfirmed. Conditions: 5 μM PFAS, 18 h, 37 °C, value (CV). Here is the method:
as §1, §2

In series [9] the test system is mouse (CD-1) plasma. As to the kind of experiment: Presaturation equilibrium dialysis, fraction unbound in CD-1 mouse plasma. The note with it: 5 μM PFAS, 18 h, 37 °C, value (CV). On the set-up: fraction unbound at 18 h: dose or concentration left out as unconfirmed. The format is in vitro ADME. As for the experimental part:
as §1, §2

Series [10] relates to human plasma. As to the kind of experiment: Presaturation equilibrium dialysis, fraction unbound in human plasma. The format is in vitro ADME. Further details: fraction unbound at 18 h: dose or concentration left out as unconfirmed. Conditions: 5 μM PFAS, 18 h, 37 °C, value (CV). As for the experimental part:
as §1, §2

In series [11] the test system is rat plasma. On the set-up: method as in PMID 12499116. The note with it: ultrafiltration method; cited from earlier work.
Series [12] concerns mouse (C57BL/6) plasma. As to the kind of experiment: Presaturation equilibrium dialysis, fraction unbound in C57BL/6 mouse plasma. Further details: fraction unbound at 18 h: dose or concentration left out as unconfirmed. Conditions: 5 μM PFAS, 18 h, 37 °C, value (CV). In kind it is in vitro ADME. Here is the method:
as §1, §2

The conditions of series [13]: humans; cited from earlier work.
Setting [14] is: 4% mouse serum albumin (MSA) solution, Fraction Unbound (fu) and Coefficient of Variance (CV), MSA, 4% mouse serum albumin in PBS, 5 μM PFAS, value (CV).
Where [15] appears, read: isolated protein, Fraction unbound (fu) and %CV, MSA 3%, 3% mouse serum albumin, value (%CV).
Where [16] appears, read: 4% rat serum albumin (RSA) solution, Fraction Unbound (fu) and Coefficient of Variance (CV), RSA, 4% rat serum albumin in PBS, 5 μM PFAS, value (CV).
Setting [17] is: isolated protein, Fraction unbound (fu) and %CV, RSA 3%, 3% rat serum albumin, value (%CV).
[18] abbreviates: 3% mouse serum albumin, value (%CV).
The mark [19] stands for this setting: 4% mouse serum albumin in PBS, 5 μM PFAS, value (CV).
Setting [20] is: 3% rat serum albumin, value (%CV).
Setting [21] is: 4% rat serum albumin in PBS, 5 μM PFAS, value (CV).

T1 sequence (P02768 25-609): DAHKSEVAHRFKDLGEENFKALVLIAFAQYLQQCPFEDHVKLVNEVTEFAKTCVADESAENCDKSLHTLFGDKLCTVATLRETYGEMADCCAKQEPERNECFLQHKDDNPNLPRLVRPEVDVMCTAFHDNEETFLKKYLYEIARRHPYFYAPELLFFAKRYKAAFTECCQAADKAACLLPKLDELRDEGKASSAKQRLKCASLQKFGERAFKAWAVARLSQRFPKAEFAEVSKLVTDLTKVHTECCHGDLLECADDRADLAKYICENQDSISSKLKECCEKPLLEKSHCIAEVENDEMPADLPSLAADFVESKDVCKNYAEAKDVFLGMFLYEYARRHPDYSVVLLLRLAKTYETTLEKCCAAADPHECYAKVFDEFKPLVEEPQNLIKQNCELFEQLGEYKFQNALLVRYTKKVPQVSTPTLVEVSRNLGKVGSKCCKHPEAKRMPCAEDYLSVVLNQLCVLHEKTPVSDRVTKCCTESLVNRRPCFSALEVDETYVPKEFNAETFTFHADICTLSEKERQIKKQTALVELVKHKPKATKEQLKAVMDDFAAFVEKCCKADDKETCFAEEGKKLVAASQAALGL

Regarding `O=S(=O)(O)C(F)(F)C(F)(F)C(F)(F)C(F)(F)C(F)(F)C(F)(F)F` [PFHxS, perfluorohexanesulfonic acid], the fraction unbound at 18 h, 5 µM in series [1] was 0.00076; in series [2] (setting [14]), 0.00225; in series [2] (setting [15]), 0.00181; in series [3] (setting [16]), 0.000573; in series [3] (setting [17]), 0.00047; in [4] it was 0.000245. For the same compound, the fraction unbound at 18 h, 5 µM in series [5] is 0.0128; in series [6], 0.000695; in series [7] it was 0.013.

For the compound `O=C(O)C(F)(F)C(F)(F)C(F)(F)C(F)(F)C(F)(F)C(F)(F)C(F)(F)C(F)(F)F` [PFNA, perfluorononanoic acid], the “Fraction Unbound (fu) and Coefficient of Variance (CV), Rat Plasma” value in [8] is 0.0021(6%). Further, in [2] (setting [18]), the “Fraction unbound (fu) and %CV, MSA 3%” value was 0.00292 (6%). The “Fraction Unbound (fu) and Coefficient of Variance (CV), MSA” value in [2] (setting [19]) is on record as 0.00364(6%). The “Fraction unbound (fu) and %CV, RSA 3%” value in series [3] (setting [20]) is 0.00217 (2%). Besides, the “Fraction Unbound (fu) and Coefficient of Variance (CV), RSA” value in series [3] (setting [21]) is reported as 0.00271(2%). In addition, in series [9], the “Fraction Unbound (fu) and Coefficient of Variance (CV), CD-1 Plasma” value is on record as 0.00455(6%). Besides, in series [10], the “Fraction Unbound (fu) and Coefficient of Variance (CV), Human Plasma” value is listed as 0.00187(3%). The bound result in series [11] is listed as “greater than 98%”. In series [12], the “Fraction Unbound (fu) and Coefficient of Variance (CV), C57BL/6 Plasma” value is 0.00438(22%).

On to `O=C(O)C(F)(F)C(F)(F)C(F)(F)C(F)(F)C(F)(F)C(F)(F)C(F)(F)F` [PFOA, perfluorooctanoic acid], for which the fraction unbound at 18 h, 5 µM in [1] was 0.00298; in series [2] (setting [14]) it was 0.00513; in [2] (setting [15]) it was 0.00411; in series [3] (setting [16]) it was 0.00196; in [3] (setting [17]), 0.00157; in series [4] it was 0.00285. Besides, the fraction unbound at 18 h, 5 µM in [5] was determined as 0.0152; in [6] it was 0.0025; in series [7], 0.0142. The t1/2 in series [13] is 2.3–5.4 years. In series [11], the bound result is recorded as “greater than 98%”.

For `O=C(O)C(F)(F)C(F)(F)C(F)(F)C(F)(F)C(F)(F)C(F)(F)C(F)(F)C(F)(F)C(F)(F)F` [PFDA, perfluorodecanoic acid], the “Fraction Unbound (fu) and Coefficient of Variance (CV), Rat Plasma” value in [8] is 0.001(9%). In [2] (setting [18]), the “Fraction unbound (fu) and %CV, MSA 3%” value is 0.000839 (26%). Also, the “Fraction Unbound (fu) and Coefficient of Variance (CV), MSA” value in series [2] (setting [19]) was 0.00102(26%). For the same compound, in series [3] (setting [20]), the “Fraction unbound (fu) and %CV, RSA 3%” value is on record as 0.000494 (19%). Further, the “Fraction Unbound (fu) and Coefficient of Variance (CV), RSA” value in [3] (setting [21]) is recorded as 0.000608(19%). Moreover, the “Fraction Unbound (fu) and Coefficient of Variance (CV), HSA” value in series [4] is 0.000584(8%). For the same compound, in series [9], the “Fraction Unbound (fu) and Coefficient of Variance (CV), CD-1 Plasma” value was 0.0015(4%). The “Fraction Unbound (fu) and Coefficient of Variance (CV), Human Plasma” value in [10] was 0.000618(9%). Besides, the bound result in series [11] was “greater than 98%”. Also, the “Fraction Unbound (fu) and Coefficient of Variance (CV), C57BL/6 Plasma” value in series [12] is on record as 0.00127(9%).

Take `O=C(O)C(F)(F)C(F)(F)C(F)(F)C(F)(F)C(F)(F)C(F)(F)F` [PFHpA, perfluoroheptanoic acid]: the fraction unbound at 18 h in [1] was determined as 0.00454; in series [5], 0.0331; in series [6] (plasma), 0.00445; in series [7], 0.0323. Besides, the fraction unbound at 18 h, 5 µM was 0.0118 in series [2] (isolated protein, Fraction Unbound (fu) and Coefficient of Variance (CV), MSA, 4% mouse serum albumin in PBS, 5 μM PFAS, value (CV)); 0.00954 in [2] (setting [15]); 0.00313 in [3] (isolated protein, Fraction Unbound (fu) and Coefficient of Variance (CV), RSA, 4% rat serum albumin in PBS, 5 μM PFAS, value (CV)); 0.00257 in series [3] (setting [17]). For the same compound, the bound entry in [11] is listed as “greater than 98%”.

Turning to `O=C(O)C(F)(F)C(F)(F)C(F)(F)C(F)(F)C(F)(F)C(F)(F)C(F)(F)C(F)(F)C(F)(F)C(F)(F)C(F)(F)F` [PFDoDA, perfluorododecanoic acid], the fraction unbound at 18 h, 5 µM turned out to be 7.96e-05 in [1]; 0.000217 in series [2] (setting [14]); 0.000175 in series [2] (setting [15]); 9.64e-05 in [3] (setting [16]); 7.77e-05 in series [3] (setting [17]); 0.000157 in series [4]. The fraction unbound at 18 h, 5 µM in series [5] was found to be 0.000222; in [6] it was 0.000105; in [7], 0.000205.

Values taken from paper PMC11054487, “Species-Specific Unbound Fraction Differences in Highly Bound PFAS: A Comparative Study across Human, Rat, and Mouse Plasma and Albumin” (Toxics, 2024).
